According to patent US10905706B2, “Compositions and methods to accelerate resolution of acute lung inflammation” (The Johns Hopkins University, priority 2015, dated 2021):
Like-named read-outs stand apart in the source and are kept apart here.

Assays:
[1] = test system: wild type (WT) mice; assay type: in vivo, mouse
[2] = test system: Rag-1−/− mice; assay type: in vivo, mouse
[3] = test system: diphtheria toxin-treated Foxp3DTR mice; assay type: in vivo, mouse
[4] = test system: diphtheria toxin-treated WT mice; details: mouse, in vivo
[5] = test system: A/PR/8/34 H1N1 influenza virus; test: DAC rescue treatment in influenza model; assay type: in vivo, mouse
[6] = test system: wild type (WT) mice
[7] = test system: splenic CD4+ CD25+ cells (Tregs); test: Lymphocyte culture with DAC, FACS phenotype of Tregs
[8] = test system: WT mice; test: IL-4 after i.t. LPS, WT mice of the Stat6 comparison; assay type: in vivo, mouse
From the text: (§1) Animals. Male C57BL/6J and BALB/cJ wild type (WT) mice (8-10 weeks old) were purchased from Jackson Laboratories (Bar Harbor, Me.). Stat6-/- mice on a BALB/c background (gift of Dr. Alan Scott) and Foxp3DTR mice on a C57BL/6 background (gift of Dr. Alexander Y. Rudensky of Memorial Sloan-Kettering) were bred. All mice were housed at the Johns Hopkins University Asthma and Allergy Bldg, and experiments conducted under a protocol approved by the Johns Hopkins Animal Care and Use Committee.
(§2) Whether the success of IL-4 therapy required M2-specific macrophage activation was also examined To test this hypothesis, the response to i.t. LPS was compared between WT mice and Stat6^−/− mice, which were deficient in a master transcriptional regulator of M2 differentiation and activation (75). […] In contrast to reduced M2 marker expression in Stat6^−/− mice, similar CD86 expression between groups (FIG. 18E) was also observed.

[9] = test system: Stat6−/− mice; test: IL-4 after i.t. LPS, Stat6−/− mice; assay type: in vivo, mouse; details: day 5 after i.t. LPS
From the text: as §1, §2

[10] = test system: Foxp3DTR mice; test: IL-4 after i.t. LPS, Treg-depleted Foxp3DTR mice; assay type: in vivo, mouse
[11] = test system: i.t. H2O-exposed mice; details: mouse, in vivo
[12] = test system: Pseudomonas aeruginosa (PAO1)
[13] = mouse, cited from earlier work
[14] = in vivo; cited from earlier work
[15] = test system: WT C57BL/6 mice; test: IL-4 treatment after i.t. LPS, C57BL/6 mice
[16] = in solution; typically; cited from earlier work
[17] = day 10 post-inoculation, vs vehicle
[18] = days 5-6 after i.t. LPS, vs sham
[19] = mRNA, validated by lung immunoblots, days 4 and 6

Nc1ncn([C@H]2C[C@H](O)[C@@H](CO)O2)c(=O)n1 [DAC, 5-aza-2′-deoxycytidine]
mortality ([1]; DAC from 24 h after i.t. LPS, vehicle 28.5%, P=0.029): none | body weight ([1]; after initial injury, vehicle sustained weight loss): steadily regained weight | CD25 expression in lung Tregs ([1]; data not shown): no significant change | injury parameters (BAL protein, cell count, neutrophil count, histology) ([1]; day 5 post-LPS): resolving phenotype | CD39 expression in lung Tregs ([1]; five days after injury): increased | CD44 expression in lung Tregs ([1]; five days after injury): increased | CTLA-4 expression in lung Tregs ([1]; five days after injury): modestly yet significantly increased | Ki-67 expression in lung Tregs ([1]; five days after injury): increased | Foxp3 expression in lung Tregs ([1]; five days post-LPS): increased | spleen Treg levels ([1]; five days post-LPS challenge): significantly elevated | lung CD4+Foxp3− cell frequency or phenotype ([1]; five days post-injury): did not impact | lung Treg frequency or phenotype ([1]; two days post-injury, after one DAC dose, data not shown): no effect | mortality ([2]; DAC days 1-4 after LPS, vehicle 50%, P=0.7): 44% | injury resolution ([2]; five days post-injury): could not be rescued | lung injury resolution (weight, BAL protein, cell count, neutrophil count, histology) ([3]; five days post-LPS): did not accelerate lung injury resolution | mortality ([3]; mouse, in vivo): 33% | lung injury resolution [4]: accelerated lung injury resolution | weight loss ([5]; DAC days 3-7 post-inoculation, day 10, vs vehicle): smaller magnitude of weight loss | lung Treg Foxp3 expression ([5]; day 10 post-inoculation): increase | lung Treg number ([5]; day 10 post-inoculation): increase | BAL cell count [5, 17]: decreased | BAL neutrophil count [5, 17]: decreased | BAL protein [5, 17]: decreased | histologic injury [5, 17]: decreased | lung Treg frequency ([6]; DAC 1 mg/kg i.p. days 1-4 after i.t. water, day 5, vs vehicle): increased | lung Treg Foxp3 expression ([6]; DAC i.p. days 1-4 after i.t. water, day 5, FACS): increased | lung histology ([6]; after four days of DAC or vehicle): normal | BAL protein ([6]; day 5 after i.t. water, both groups): low overall | pulmonary or overt systemic toxicity ([6]; dose that increased lung Treg number): did not cause pulmonary or overt systemic toxicity | spleen Treg levels ([6]; five days post-water treatment): significantly elevated | weight loss or mortality ([6]; i.t. water, data not shown): Neither group lost weight or experienced mortality | CD39 expression in Tregs ([7]; 100 nM DAC vs vehicle, 48 h): did not augment | CD44 expression in Tregs ([7]; 100 nM DAC vs vehicle, 48 h): increased CD44 expression | CTLA-4 expression in Tregs ([7]; 100 nM DAC vs vehicle, 48 h): modestly increased | percentage of Tregs expressing Ki-67 ([7]; 100 nM DAC vs vehicle, 48 h): higher percentage | Foxp3 expression in Tregs ([7]; 48 h culture, anti-CD3/CD28, IL-2, DAC 10 or 100 nM): augmented Foxp3 expression | difference in Foxp3 mean fluorescence intensity between DAC-induced Foxp3+ cells and Foxp3+ Tregs cultured with DAC ([7]; in vitro culture): approximately 50 fold

IL-4: recombinant IL-4 cytokine (PeptroTech); in the examples given i.p. as a complex with anti-IL-4 antibody
BAL neutrophils ([8]; day 5): greater than two-fold reduction | BAL protein ([8]; day 5): greater than two-fold reduction | weight ([8]; days 4 and 5, vs all other groups): significant weight gain | response to IL-4 (BAL protein and neutrophils) [9]: blunted response | BAL macrophages ([10]; day 6, vs sham): significant increase | M2 macrophage surface marker expression ([10]; day 6, vs sham): higher | BAL neutrophils ([10]; day 6 after i.t. LPS, vs sham): significantly reduced | BAL protein ([10]; day 6 after i.t. LPS, vs sham): significantly reduced | BAL total cell count ([10]; day 6 after i.t. LPS, vs sham): significantly reduced | weights ([10]; i.t. LPS 3 mg/kg, DT, IL-4 days 2 and 3, vs sham): significantly increased | Crs or DFCO [11]: no marked differences | BAL albumin ([12]; day 4, vs sham): two-fold reductions | BAL neutrophils ([12]; day 4, vs sham): four-fold reduction | MFI of MMR and Dectin-1 ([12]; day 4, vs sham): significantly increased | percentage of alveolar macrophages (F4/80+) expressing MMR and Dectin-1 ([12]; day 4, vs sham): more than doubled | BAL protein ([12]; i.t. PAO1 day 0, IL-4 days 2 and 3, day 4, vs sham): two-fold reductions | lung CFU counts ([12]; mouse, in vivo): similar | half-life in mice ([13]; in vivo): 30 min | duration of in vivo IL-4 activity [13]: about 30 minutes | safety in humans [14]: safe | weight gain ([15]; by day 6 after i.t. LPS, vs sham): improved weight gain | whole lung mRNA level of inducible nitric oxide synthase (Nos2) ([15]; day 4): reduced | CD86 level on alveolar macrophages (F4/80+) ([15]; day 6, vs sham): three-fold lower | Dectin-1 level on alveolar macrophages (F4/80+) ([15]; day 6, vs sham): four-fold higher | MMR level on alveolar macrophages (F4/80+) ([15]; day 6, vs sham): four-fold higher | Tregs recovered by BAL ([15]; day 6 after i.t. LPS, vs sham): significant three-fold increase | histopathologic evidence of lung injury ([15]; day 6 after i.t. LPS, vs sham): reduced histopathologic evidence of lung injury | diffusing capacity (DFCO) ([15]; day 6 following i.t. LPS): significantly improved | lung collagen ([15]; day 6 following i.t. LPS, vs sham): significantly reduced | BAL albumin [15, 18]: two-fold reduction | BAL neutrophils [15, 18]: five-fold reduction | BAL protein [15, 18]: as much as a three-fold reduction | survival ([15]; i.t. LPS 4 mg/kg day 0, IL-4 days 2-4, sham 57%): 92% | number of FIZZ1-expressing alveolar macrophages ([15]; i.t. LPS, vs sham): smaller, yet significant increase | number of FIZZ1-expressing interstitial macrophages ([15]; i.t. LPS, vs sham): significant two-fold increase | Arginase 1 (Arg1) level in whole lung [15, 19]: significantly increased | Fizz1 (Retn1a) level in whole lung [15, 19]: significantly increased | Ym1 (Chil3) level in whole lung [15, 19]: significantly increased

diphtheria toxin [reference compound]
Tregs remaining after depletion, of all CD4+ cells ([10]; spleen, lung, BAL, sham- and IL-4-treated groups): less than 0.2%

B1: recombinant human IL-4: 15.1 kDa globular protein, SEQ ID NO: 3 (protein)
chain: MHKCDITLQEIIKTLNSLTEQKTLCTELTVTDIFAASKNTTEKETFCRAATVLRQFYSHHEKDTRCLGATAQQFHRHKQLIRFLKRLDRNLWGLAGLNSCPVKEANQSTLENFLERLKTIMREKYSKCSS
ED50 for certain effects [16]: 0.006 to 0.03 ng/mL
